Laboratory results taken from US20240376094A2, “SELECTIVE BCL-XL PROTAC COMPOUNDS AND METHODS OF USE” (Les Laboratoires Servier, priority 2021, published 2024).

Tests used:
MOLT-4 cells = experiment: MOLT-4 cell viability, MTT assay; format: cell-based; details: Homo sapiens, MOLT-4, 48 h
Method in brief: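 MOLT-4 cells in RPMI 1640 with 10% FBS were exposed to compounds for 48 h at 9 concentrations (3.16-fold dilutions, triplicates). After 4 h with MTT and overnight SDS/HCl solubilisation, absorbance was read at 540 nm. IC50 came from four-parameter fits versus control, as the mean of ≥2 independent experiments.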

endogenous BCL-xL = molecular target: T1, endogenous BCL-xL (Homo sapiens, UniProt Q07817); experiment: Degradation of endogenous BCL-xL in COR-L105 (ProteinSimple Jess); format: cell-based; details: COR-L105, 24 h, COR-L105, dose 300 nM, read-out: % BCL-xL vs. Untreated, COR-L105
T1 construct: endogenous in cells; host or cells: COR-L105 (ECACC No. 92031918); NCI-H1650 (ATCC No. CRL-5883)
T1 sequence (Q07817 whole entry): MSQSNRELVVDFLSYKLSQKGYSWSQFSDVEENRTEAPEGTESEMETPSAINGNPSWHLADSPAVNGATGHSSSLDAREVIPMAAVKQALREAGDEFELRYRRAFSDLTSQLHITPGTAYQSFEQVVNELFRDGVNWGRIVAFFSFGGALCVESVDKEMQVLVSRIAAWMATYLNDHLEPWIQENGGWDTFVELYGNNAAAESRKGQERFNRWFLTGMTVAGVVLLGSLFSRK
Method in brief: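 COR-L105 cells (2,000,000/well) treated 24 h at 37 °C with compound at 100–300 nM final, singlet, alongside untreated cells. RIPA lysates normalized by BCA to 1.5 mg/mL, then BCL-xL detected by capillary immunoassay (2–40 kDa Jess) comparing treated with untreated lysates.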

| IC50 (MOLT-4 cells) | remaining activity at 0.3 µM (endogenous BCL-xL) | Compound |
| --- | --- | --- |
| 2.64 nM | 40% | Cc1ncsc1-c1ccc(CNC(=O)[C@@H]2CC(O)CN2C(=O)C(NC(=O)CCCCCCC(=O)N2CCN(CCOC34CC5(C)CC(C)(CC(Cn6ncc(-c7ccc(N8CCCc9c8nnc(Nc8nc%10ccccc%10s8)c9C)nc7C(=O)O)c6C)(C5)C3)C4)CC2)C(C)(C)C)cc1 (stereo in doubt) [Example 24, 6-[3-(1,3-benzothiazol-2-ylamino)-4-methyl-6,7-dihydro-5H-pyrido[2,3-c]pyridazin-8-yl]-3-[1-[[3-[2-[4-[8-[[(1S)-1-[(2S,4R)-4-hydroxy-2-[[4-(4-methylthiazol-5-yl)phenyl]methylcarbamoyl]pyrrolidine-1-carbonyl]-2,2-dimethyl-propyl]amino]-8-oxo-octanoyl]piperazin-1-yl]ethoxy]-5,7-dimethyl-1-adamantyl]methyl]-5-methyl-pyrazol-4-yl]pyridine-2-carboxylic acid] |
|  | 12.1% | Cc1ncsc1-c1ccc([C@H](C)NC(=O)[C@@H]2C[C@@H](O)CN2C(=O)[C@@H](NC(=O)CCCCCCCCCCCN2CCN(CC#Cc3ccc(OCCCc4sc(N5CCCc6c5nnc(Nc5nc7ccccc7s5)c6C)nc4C(=O)O)c(F)c3)CC2)C(C)(C)C)cc1 [Example 51, 2-(3-(benzo[d]thiazol-2-ylamino)-4-methyl-6,7-dihydropyrido [2,3-c]pyridazin-8(5H)-yl)-5-(3-(2-fluoro-4-(3-(4-(12-(((S)-1-((2S,4R)-4-hydroxy-2-(((S)-1-(4-(4-methylthiazol-5-yl)phenyl)ethyl)carbamoyl)pyrrolidin-1-yl)-3,3-dimethyl-1-oxobutan-2-yl)amino)-12-oxododecyl)piperazin-1-yl)prop-1-yn-1-yl)phenoxy)propyl)thiazole-4-carboxylic acid] |
